Reference: ChEMBL document CHEMBL5154765, “Design, synthesis, and biological evaluation of novel spiro[pyrrolidine-2,3'-quinolin]-2'-one derivatives as potential chitin synthase inhibitors and antifungal agents” (Eur J Med Chem, 2022)
Values after ≈ are worked out from the molar mass of the structure shown. *1 amine or outer side, *2 acyl side, *3 side chain or, on linkers, in order; H or OH if unused. Where a SMILES comes first, the peptide text is derived from it. Bridges are numbered along the chain shown (N, C = ends). [ ]: non-standard residue; d: D form. The star is where a group is joined. hTyr(3S-OH,4S-OH,3'-OSO3H) = N[C@H](C(=O)O)[C@H](O)[C@@H](O)c1ccc(O)c(OS(=O)(=O)O)c1; Orn(4R-OH,5R-OH) = O=C([C@H](C[C@@H](O)[C@@H](O)N[*:3])N[*:1])[*:2]; Pro(3S-OH,4S-Me) = C[C@H]1CN[C@H](C(=O)O)[C@H]1O; X1 = CCCCCOc1ccc(-c2cc(-c3ccc(C(=O)*)cc3)no2)cc1; Gln(3R-OH) = NC(=O)C[C@@H](O)[C@H](N)C(=O)O; Hyp = O=C(O)[C@@H]1C[C@@H](O)CN1

Key:
Candida albicans [1] = assay: Antifungal activity against Candida albicans ATCC 76615 assessed as reduction in fungal growth incubated for 24 hrs by two fold broth dilution method; format: functional
Cryptococcus neoformans [2] = assay: Synergistic antifungal activity against Cryptococcus neoformans ATCC 32719 assessed as fractional inhibitory concentration index incubated for 72 hrs in presence of fluconazole by checker board assay; format: functional
Aspergillus fumigatus [3] = assay: Antifungal activity against Aspergillus fumigatus GIMCC 3.19 assessed as reduction in fungal growth incubated for 24 hrs by two fold broth dilution method; format: functional
Cryptococcus neoformans [4] = assay: Antifungal activity against Cryptococcus neoformans ATCC 32719 assessed as fluconazole MIC incubated for 72 hrs by checker board assay; format: functional
Candida albicans [5] = assay: Antifungal activity against micafungin resistant Candida albicans ATCC 76615 assessed as reduction in fungal growth incubated for 24 hrs by two fold broth dilution method; format: functional
Candida albicans [6] = assay: Synergistic antifungal activity against Candida albicans ATCC 76615 assessed as fractional inhibitory concentration index incubated for 72 hrs in presence of polyoxin B by checker board assay; format: functional
Cryptococcus neoformans [7] = assay: Antifungal activity against Cryptococcus neoformans ATCC 32719 assessed as reduction in fungal growth in presence of sorbitol incubated for 24 hrs by two fold broth dilution method; format: functional
Cryptococcus neoformans [8] = assay: Synergistic antifungal activity against Cryptococcus neoformans ATCC 32719 assessed as fractional inhibitory concentration index incubated for 72 hrs in presence of polyoxin B by checker board assay; format: functional
Aspergillus flavus [9] = assay: Synergistic antifungal activity against Aspergillus flavus ATCC 16870 assessed as fractional inhibitory concentration index incubated for 72 hrs in presence of fluconazole by checker board assay; format: functional
Aspergillus flavus [10] = assay: Antifungal activity against Aspergillus flavus ATCC 16870 incubated for 72 hrs in presence of polyoxin B by checker board assay; format: functional
Aspergillus fumigatus [11] = assay: Synergistic antifungal activity against Aspergillus fumigatus GIMCC 3.19 assessed as fractional inhibitory concentration index incubated for 72 hrs in presence of polyoxin B by checker board assay; format: functional
Candida albicans [12] = assay: Antifungal activity against Candida albicans ATCC 76615 incubated for 72 hrs in presence of fluconazole by checker board assay; format: functional
Aspergillus fumigatus [13] = assay: Antifungal activity against Aspergillus fumigatus GIMCC 3.19 assessed as fluconazole MIC incubated for 72 hrs by checker board assay; format: functional
Candida albicans [14] = assay: Antifungal activity against Candida albicans ATCC 76615 incubated for 72 hrs in presence of polyoxin B by checker board assay; format: functional
Aspergillus fumigatus [15] = assay: Antifungal activity against Aspergillus fumigatus GIMCC 3.19 incubated for 72 hrs in presence of polyoxin B by checker board assay; format: functional
Aspergillus fumigatus [16] = assay: Antifungal activity against Aspergillus fumigatus GIMCC 3.19 assessed as reduction in fungal growth in presence of sorbitol incubated for 24 hrs by two fold broth dilution method; format: functional
[17] = Inhibition of Candida tropicalis ATCC750 chitin synthase using UDP-GlcNAc as substrate incubated for 1 hr by microplate reader analysis
Cryptococcus neoformans [18] = assay: Antifungal activity against Cryptococcus neoformans ATCC 32719 incubated for 72 hrs in presence of fluconazole by checker board assay; format: functional
Cryptococcus neoformans [19] = assay: Antifungal activity against fluconazole resistant Cryptococcus neoformans ATCC 32719 assessed as reduction in fungal growth incubated for 24 hrs by two fold broth dilution method; format: functional
Candida albicans [20] = assay: Antifungal activity against Candida albicans ATCC 76615 assessed as polyoxin B MIC incubated for 72 hrs by checker board assay; format: functional
Candida albicans [21] = assay: Antifungal activity against Candida albicans ATCC 76615 assessed as reduction in fungal growth in presence of sorbitol incubated for 24 hrs by two fold broth dilution method; format: functional
Aspergillus flavus [22] = assay: Antifungal activity against Aspergillus flavus ATCC 16870 assessed as polyoxin B MIC incubated for 72 hrs by checker board assay; format: functional
Candida albicans [23] = assay: Antifungal activity against fluconazole resistant Candida albicans ATCC 76615 assessed as reduction in fungal growth incubated for 24 hrs by two fold broth dilution method; format: functional
Aspergillus fumigatus [24] = assay: Synergistic antifungal activity against Aspergillus fumigatus GIMCC 3.19 assessed as fractional inhibitory concentration index incubated for 72 hrs in presence of fluconazole by checker board assay; format: functional
Aspergillus flavus [25] = assay: Synergistic antifungal activity against Aspergillus flavus ATCC 16870 assessed as fractional inhibitory concentration index incubated for 72 hrs in presence of polyoxin B by checker board assay; format: functional
Aspergillus flavus [26] = assay: Antifungal activity against Aspergillus flavus ATCC 16870 assessed as reduction in fungal growth in presence of sorbitol incubated for 24 hrs by two fold broth dilution method; format: functional
Aspergillus flavus [27] = assay: Antifungal activity against fluconazole resistant Aspergillus flavus ATCC 16870 assessed as reduction in fungal growth incubated for 24 hrs by two fold broth dilution method; format: functional
Aspergillus fumigatus [28] = assay: Antifungal activity against fluconazole resistant Aspergillus fumigatus GIMCC 3.19 assessed as reduction in fungal growth incubated for 24 hrs by two fold broth dilution method; format: functional
Aspergillus flavus [29] = assay: Antifungal activity against Aspergillus flavus ATCC 16870 assessed as reduction in fungal growth incubated for 24 hrs by two fold broth dilution method; format: functional
Cryptococcus neoformans [30] = assay: Antifungal activity against Cryptococcus neoformans ATCC 32719 incubated for 72 hrs in presence of polyoxin B by checker board assay; format: functional
Aspergillus fumigatus [31] = assay: Antifungal activity against Aspergillus fumigatus GIMCC 3.19 incubated for 72 hrs in presence of fluconazole by checker board assay; format: functional
Aspergillus flavus [32] = assay: Antifungal activity against Aspergillus flavus ATCC 16870 assessed as fluconazole MIC incubated for 72 hrs by checker board assay; format: functional
Candida tropicalis = assay: Inhibition of Candida tropicalis ATCC750 chitin synthase at 300 ug/ml using UDP-GlcNAc as substrate incubated for 1 hr by microplate reader analysis relative to control; settings: dose 300.0 µg/ml
Candida albicans [33] = assay: Antifungal activity against Candida albicans ATCC 76615 assessed as fluconazole MIC incubated for 72 hrs by checker board assay; format: functional
Aspergillus flavus [34] = assay: Antifungal activity against Aspergillus flavus ATCC 16870 incubated for 72 hrs in presence of fluconazole by checker board assay; format: functional
Cryptococcus neoformans [35] = assay: Antifungal activity against Cryptococcus neoformans ATCC 32719 assessed as polyoxin B MIC incubated for 72 hrs by checker board assay; format: functional
Aspergillus fumigatus [36] = assay: Antifungal activity against Aspergillus fumigatus GIMCC 3.19 assessed as polyoxin B MIC incubated for 72 hrs by checker board assay; format: functional
Candida albicans [37] = assay: Synergistic antifungal activity against Candida albicans ATCC 76615 assessed as fractional inhibitory concentration index incubated for 72 hrs in presence of fluconazole by checker board assay; format: functional
Cryptococcus neoformans [38] = assay: Antifungal activity against Cryptococcus neoformans ATCC 32719 assessed as reduction in fungal growth incubated for 24 hrs by two fold broth dilution method; format: functional

O=C(/C=C/C(=O)N1CCCC12Cc1ccccc1NC2=O)Nc1ccc(Cl)c(F)c1 (configuration not stated)
MIC (Candida albicans [1]): 2 mg/L (≈ 4.67 µM) | fractional inhibitory concentration index (FICI) (Cryptococcus neoformans [2]): 1.5 | MIC (Aspergillus fumigatus [3]): 4 mg/L (≈ 9.35 µM) | MIC (Cryptococcus neoformans [4]): 8 mg/L | MIC (Candida albicans [5]): 32 mg/L (≈ 74.8 µM) | fractional inhibitory concentration index (FICI) (Candida albicans [6]): 2 | MIC (Cryptococcus neoformans [7]): 64 mg/L | fractional inhibitory concentration index (FICI) (Cryptococcus neoformans [8]): 0.75 | fractional inhibitory concentration index (FICI) (Aspergillus flavus [9]): 0.63 | MIC (Aspergillus flavus [10]): 4 mg/L | fractional inhibitory concentration index (FICI) (Aspergillus fumigatus [11]): 0.75 | MIC (Candida albicans [12]): 0.5 mg/L | MIC (Aspergillus fumigatus [13]): 1 mg/L | MIC (Candida albicans [14]): 2 mg/L | MIC (Aspergillus fumigatus [15]): 2 mg/L | MIC (Aspergillus fumigatus [16]): 32 mg/L | IC50 [17]: 110 µM | MIC (Cryptococcus neoformans [18]): 4 mg/L | MIC (Cryptococcus neoformans [19]): 256 mg/L (≈ 598 µM) | MIC (Candida albicans [20]): 8 mg/L | MIC (Candida albicans [21]): 16 mg/L | MIC (Aspergillus flavus [22]): 8 mg/L | MIC (Candida albicans [23]): 32 mg/L (≈ 74.8 µM) | fractional inhibitory concentration index (FICI) (Aspergillus fumigatus [24]): 0.5 | fractional inhibitory concentration index (FICI) (Aspergillus flavus [25]): 2 | MIC (Aspergillus flavus [26]): 64 mg/L | MIC (Aspergillus flavus [27]): 32 mg/L (≈ 74.8 µM) | MIC (Aspergillus fumigatus [28]): 128 mg/L (≈ 299 µM) | MIC (Aspergillus flavus [29]): 4 mg/L (≈ 9.35 µM) | MIC (Cryptococcus neoformans [30]): 4 mg/L | MIC (Aspergillus fumigatus [31]): 1 mg/L | MIC (Aspergillus flavus [32]): 1 mg/L | inhibition (Candida tropicalis): 82.6% | MIC (Candida albicans [33]): 1 mg/L | MIC (Aspergillus flavus [34]): 2 mg/L | MIC (Cryptococcus neoformans [35]): 4 mg/L | MIC (Aspergillus fumigatus [36]): 2 mg/L | fractional inhibitory concentration index (FICI) (Candida albicans [37]): 0.5 | MIC (Cryptococcus neoformans [38]): 8 mg/L (≈ 18.7 µM)

COc1cc(NC(=O)/C=C/C(=O)N2CCCC23Cc2ccccc2NC3=O)c(OC)cc1Cl (configuration not stated)
MIC (Candida albicans [1]): 8 mg/L (≈ 17 µM) | MIC (Aspergillus fumigatus [3]): 32 mg/L (≈ 68.1 µM) | IC50 [17]: 200 µM | MIC (Aspergillus flavus [29]): 16 mg/L (≈ 34 µM) | inhibition (Candida tropicalis): 67.9% | MIC (Cryptococcus neoformans [38]): 32 mg/L (≈ 68.1 µM)

COc1ccc(NC(=O)/C=C/C(=O)N2CCCC23Cc2ccccc2NC3=O)cc1 (configuration not stated)
MIC (Candida albicans [1]): 16 mg/L (≈ 39.5 µM) | MIC (Aspergillus fumigatus [3]): 8 mg/L (≈ 19.7 µM) | IC50 [17]: 590 µM | MIC (Aspergillus flavus [29]): 32 mg/L (≈ 78.9 µM) | inhibition (Candida tropicalis): 50.9% | MIC (Cryptococcus neoformans [38]): 32 mg/L (≈ 78.9 µM)

Cc1cc(C)cc(NC(=O)/C=C/C(=O)N2CCCC23Cc2ccccc2NC3=O)c1 (configuration not stated)
MIC (Candida albicans [1]): 16 mg/L (≈ 39.7 µM) | MIC (Aspergillus fumigatus [3]): 32 mg/L (≈ 79.3 µM) | IC50 [17]: 990 µM | MIC (Aspergillus flavus [29]): 32 mg/L (≈ 79.3 µM) | inhibition (Candida tropicalis): 45.7% | MIC (Cryptococcus neoformans [38]): 32 mg/L (≈ 79.3 µM)

O=C(/C=C/C(=O)N1CCCC12Cc1ccccc1NC2=O)Nc1ccc(Br)cc1 (configuration not stated)
MIC (Candida albicans [1]): 8 mg/L (≈ 17.6 µM) | MIC (Aspergillus fumigatus [3]): 16 mg/L (≈ 35.2 µM) | IC50 [17]: 520 µM | MIC (Aspergillus flavus [29]): 16 mg/L (≈ 35.2 µM) | inhibition (Candida tropicalis): 56.4% | MIC (Cryptococcus neoformans [38]): 16 mg/L (≈ 35.2 µM)

CCCCCOc1ccc(-c2cc(-c3ccc(C(=O)N[C@H]4C[C@@H](O)[C@@H](O)NC(=O)[C@@H]5[C@@H](O)[C@@H](C)CN5C(=O)[C@H]([C@H](O)CC(N)=O)NC(=O)[C@H]([C@H](O)[C@@H](O)c5ccc(O)c(OS(=O)(=O)O)c5)NC(=O)[C@@H]5C[C@@H](O)CN5C(=O)[C@H]([C@@H](C)O)NC4=O)cc3)no2)cc1 [MICAFUNGIN] (X1-[Orn(4R-OH,5R-OH)]T[Hyp][hTyr(3S-OH,4S-OH,3'-OSO3H)][Gln(3R-OH)][Pro(3S-OH,4S-Me)]; lactam 1-C)
MIC (Candida albicans [5]): > 256 mg/L

NC(=O)OC[C@H](O)[C@@H](O)[C@H](N)C(=O)N[C@H](C(=O)O)[C@H]1O[C@@H](n2cc(CO)c(=O)[nH]c2=O)[C@H](O)[C@@H]1O [POLYOXIN B]
MIC (Candida albicans [1]): 8 mg/L (≈ 15.8 µM) | MIC (Aspergillus fumigatus [3]): 8 mg/L (≈ 15.8 µM) | MIC (Cryptococcus neoformans [7]): 128 mg/L | MIC (Aspergillus fumigatus [16]): 64 mg/L | IC50 [17]: 90 µM | MIC (Candida albicans [21]): 64 mg/L | MIC (Aspergillus flavus [26]): 64 mg/L | MIC (Aspergillus flavus [29]): 8 mg/L (≈ 15.8 µM) | inhibition (Candida tropicalis): 86.1% | MIC (Cryptococcus neoformans [38]): 16 mg/L (≈ 31.5 µM)

OC(Cn1cncn1)(Cn1cncn1)c1ccc(F)cc1F [FLUCONAZOLE]
MIC (Candida albicans [1]): 4 mg/L (≈ 13.1 µM) | MIC (Aspergillus fumigatus [3]): 4 mg/L (≈ 13.1 µM) | MIC (Cryptococcus neoformans [19]): > 256 mg/L | MIC (Candida albicans [23]): > 256 mg/L | MIC (Aspergillus flavus [27]): > 256 mg/L | MIC (Aspergillus fumigatus [28]): > 256 mg/L | MIC (Aspergillus flavus [29]): 8 mg/L (≈ 26.1 µM) | MIC (Cryptococcus neoformans [38]): 8 mg/L (≈ 26.1 µM)
